# Earlier results as cited in patent US20200338057A1, “Methods of Treating Prostate Cancer Based on Molecular Subtypes” (Janssen Pharmaceutica NV, priority 2019, published 2020).
# Experiments:
# [1] = test system: noncastrate hormone-sensitive and bicalutamide-resistant human prostate cancer xenograft models; settings: noncastrate hormone-sensitive and bicalutamide-resistant human prostate cancer xenografts
SMILES,AR binding affinity (AR),Tumor response in xenograft models [1]
"CC(O)c1cc(C(=O)N[C@@H](C)Cn2ccc(-c3ccc(C#N)c(Cl)c3)n2)[nH]n1 (some centres unmarked) [Darolutamide, darolutamide]",high affinity,–
"CNC(=O)c1ccc(N2C(=S)N(c3cnc(C#N)c(C(F)(F)F)c3)C(=O)C23CCC3)cc1F [Apalutamide, 4-[7-(6-cyano-5-trifluoromethylpyridin-3-yl)-8-oxo-6-thioxo-5,7-diazaspiro[3.4]oct-5-yl]-2-fluoro-N-methylbenzamide]",–,partial or complete tumor regression
